Data from BindingDB's records for 0.1007/s00044-005-0126-y (University, Mississippi, 2005).

Tests used:
[1] = target: T1, Cysteine proteinase falcipain 3 (Plasmodium falciparum (isolate 3D7), UniProt Q8IIL0); test: In Vitro Inhibition Assay
T1 sequence (Q8IIL0 whole entry): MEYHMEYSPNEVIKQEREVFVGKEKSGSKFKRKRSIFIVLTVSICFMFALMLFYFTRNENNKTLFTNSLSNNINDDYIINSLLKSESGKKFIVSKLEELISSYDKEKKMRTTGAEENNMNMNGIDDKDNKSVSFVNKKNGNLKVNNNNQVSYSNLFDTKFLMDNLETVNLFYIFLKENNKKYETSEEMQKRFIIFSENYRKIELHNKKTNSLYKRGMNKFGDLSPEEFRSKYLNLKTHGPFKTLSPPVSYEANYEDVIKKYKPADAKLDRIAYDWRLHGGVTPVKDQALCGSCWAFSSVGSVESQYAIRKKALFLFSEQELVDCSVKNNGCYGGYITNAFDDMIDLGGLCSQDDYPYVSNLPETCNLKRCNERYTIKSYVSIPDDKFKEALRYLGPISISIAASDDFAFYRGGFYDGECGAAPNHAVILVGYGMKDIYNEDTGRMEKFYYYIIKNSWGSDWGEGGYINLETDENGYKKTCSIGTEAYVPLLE
Method: (§1) In vitro antimalarial assay, antimalarial activity of the compounds was determined in vitro on chloroquine sensitive and resistant strains of plasmodium flaciparum as described earlier.

[2] = target: T2, Cysteine proteinase falcipain 2a (Plasmodium falciparum, UniProt Q9NBD4); test: In Vitro Inhibition Assay
T2 sequence (Q9NBD4 whole entry): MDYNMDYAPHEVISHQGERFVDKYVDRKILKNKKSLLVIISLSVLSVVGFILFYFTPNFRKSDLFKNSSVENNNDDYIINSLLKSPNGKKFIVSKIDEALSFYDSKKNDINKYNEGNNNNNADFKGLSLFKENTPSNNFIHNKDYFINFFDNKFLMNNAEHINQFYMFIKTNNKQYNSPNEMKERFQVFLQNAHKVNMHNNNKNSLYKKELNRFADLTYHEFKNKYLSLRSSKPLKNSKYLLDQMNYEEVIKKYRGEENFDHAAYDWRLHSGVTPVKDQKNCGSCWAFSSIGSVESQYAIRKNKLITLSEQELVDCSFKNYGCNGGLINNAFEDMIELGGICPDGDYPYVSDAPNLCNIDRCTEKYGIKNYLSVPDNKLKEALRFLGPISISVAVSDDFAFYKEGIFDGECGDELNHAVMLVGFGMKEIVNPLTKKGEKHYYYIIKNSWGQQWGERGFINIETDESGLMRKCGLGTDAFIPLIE
Method: as §1

With O=C(C=Cc1nc(CCc2ccccc2)c(CCCO)s1)CSCCCc1ccccc1 [Trisubsituted thiazole, 14] the IC50 [1] was 29.4 µM and the IC50 [2] was 6.6 µM.
O=C(CCc1nc(CCc2ccccc2)c(CCCO)s1)CSCCCc1ccccc1 [Trisubsituted thiazole, 15] was tested, and the IC50 [1] was > 50 µM and the IC50 [2] was > 12.5 µM.
For O=CCCc1sc(CCC(=O)CSCCCc2ccccc2)nc1CCc1ccccc1 [Trisubsituted thiazole, 16], the IC50 [1] was > 50 µM and the IC50 [2] was 39.1 µM.
With NC(=O)CCc1sc(CCC(=O)CSCCCc2ccccc2)nc1CCc1ccccc1 [Trisubsituted thiazole, 17] the IC50 [1] was > 50 µM and the IC50 [2] was > 33 µM.
CC(=O)NCCCc1sc(CCC(=O)CSCCCc2ccccc2)nc1CCc1ccccc1 [Trisubsituted thiazole, 20] was tested, and the IC50 [1] was > 50 µM and the IC50 [2] was > 33 µM.
NC(=O)CCc1sc(NC(=O)CSCCCc2ccccc2)nc1/C=C/c1ccccc1 [Trisubsituted thiazole, 23] gave an IC50 [2] of 15.3 µM.
O=C(CCc1nc(CO)c(CCc2ccccc2)s1)CSCCCc1ccccc1 [Trisubsituted thiazole, 29] was tested, and the IC50 [1] was > 50 µM and the IC50 [2] was > 12.5 µM.
In the case of CC(=O)OCc1nc(CCC(=O)CSCCCc2ccccc2)sc1CCc1ccccc1 [Trisubsituted thiazole, 30], the IC50 [1] is reported as > 50 µM and the IC50 [2] is reported as > 33 µM.
